Earlier results, collected in US20130316000A1, “COMPOSITIONS AND METHODS FOR TREATMENT OF IRRITABLE BOWEL SYNDROME WITH 5-AMINOSALICYLATE” (priority 2012, published 2013).

Nc1ccc(O)c(C(=O)O)c1 [mesalamine, 5-aminosalicylic acid]
concentration detected in human breast milk: low concentrations
